Reference: PubChem BioAssay AID336 (DTP/NCI, 2004)
Several values for one entry are separate records, joined by “and”; a condition that tells them apart may be missing. Equal entries are not always repeated. Inconclusive results and toxic doses are left out.

Test system: BDF1 mice, P388/VCR leukemia ip, median survival T/C
Experiment: NCI In Vivo Anticancer Drug Screen. Data for tumor model P388 Leukemia resistant to Vincristine; NSC 67574 (intraperitoneal) in B6D2F1 (BDF1) mice
Conditions: endpoint: median survival time, higher = longer survival
Procedure: The antitumor activity of compounds was measured in mice bearing transplantable tumors. Survival or tumor size were measured and the results are expressed as the measurement made in the treated group (T) divided by the measurement made in the vehicle treated control group (C). The tumor model used in this assay is P388 Leukemia resistant to Vincristine; NSC 67574 (intraperitoneal) in B6D2F1 (BDF1) mice

[1] = dose: 250.0 mg/kg/injection, schedule: Q01DX010 (ip), vehicle: saline
[2] = dose: 3.13 mg/kg/injection, schedule: Q01DX010 (ip), vehicle: saline
[3] = dose: 6.25 mg/kg/injection, schedule: Q01DX010 (ip), vehicle: saline
[4] = dose: 12.5 mg/kg/injection, schedule: Q01DX010 (ip), vehicle: saline
[5] = dose: 2.0 mg/kg/injection, schedule: Q01DX010 (ip), vehicle: saline
[6] = dose: 8.0 mg/kg/injection, schedule: Q01DX010 (ip), vehicle: saline
[7] = dose: 2.5 mg/kg/injection, schedule: Q01DX010 (ip), vehicle: saline
[8] = dose: 5.0 mg/kg/injection, schedule: Q01DX010 (ip), vehicle: saline
[9] = dose: 12.0 mg/kg/injection, schedule: Q01DX010 (ip), vehicle: saline
[10] = dose: 18.0 mg/kg/injection, schedule: Q01DX010 (ip), vehicle: saline
[11] = dose: 125.0 mg/kg/injection, schedule: Q01DX010 (ip), vehicle: saline

S=P(N1CC1)(N1CC1)N1CC1
T/C (dose: 0.75 mg/kg/injection, schedule: Q01DX010 (ip), vehicle: saline): 91 % of control and 95 % of control | T/C (dose: 1.5 mg/kg/injection, schedule: Q01DX010 (ip), vehicle: saline): 91 % of control | T/C (dose: 3.0 mg/kg/injection, schedule: Q01DX010 (ip), vehicle: saline): 95 % of control | T/C (dose: 6.0 mg/kg/injection, schedule: Q01DX010 (ip), vehicle: saline): 91 % of control and 104 % of control

O=C(Nc1ccc(NC(=O)Nc2ccc(C3=NCCN3)cc2)cc1)Nc1ccc(C2=NCCN2)cc1
T/C [1]: 150 % of control | T/C (dose: 375.0 mg/kg/injection, schedule: Q01DX010 (ip), vehicle: saline): 154 % of control

N[C@@H](Cc1ccc(N(CCCl)CCCl)cc1)C(=O)O
T/C (dose: 3.6 mg/kg/injection, schedule: Q01DX001 (ip), vehicle: saline): 184 % of control | T/C (dose: 6.0 mg/kg/injection, schedule: Q01DX001 (ip), vehicle: saline): 181 % of control | T/C (dose: 10.0 mg/kg/injection, schedule: Q01DX001 (ip), vehicle: saline): 191 % of control | T/C (dose: 16.7 mg/kg/injection, schedule: Q01DX001 (ip), vehicle: saline): 161 % of control

CC(=O)O[C@]1(C(C)=O)CC[C@H]2[C@@H]3C[C@H](C)C4=CC(=O)C=C[C@]4(C)[C@@]3(F)[C@@H](O)C[C@@]21C
T/C (dose: 12.5 mg/kg/injection, schedule: Q01DX010 (sc), vehicle: steriod suspending solution): 103 % of control | T/C (dose: 25.0 mg/kg/injection, schedule: Q01DX010 (sc), vehicle: steriod suspending solution): 116 % of control | T/C (dose: 50.0 mg/kg/injection, schedule: Q01DX010 (sc), vehicle: steriod suspending solution): 110 % of control | T/C (dose: 100.0 mg/kg/injection, schedule: Q01DX010 (sc), vehicle: steriod suspending solution): 113 % of control

CO[C@H]1Nc2c(ccc(C)c2O)C(=O)N2C=C(/C=C/C(N)=O)C[C@@H]12
T/C (dose: 151.0 micrograms/kg/injection, schedule: Q04DX003 (ip), vehicle: saline + alcohol): 113 % of control | T/C (dose: 360.0 micrograms/kg/injection, schedule: Q04DX003 (ip), vehicle: saline + alcohol): 122 % of control

O=C(O)CCCc1ccc(N(CCCl)CCCl)cc1
T/C [2]: 92 % of control and 104 % of control | T/C [3]: 100 % of control | T/C [4]: 152 % of control

CCCCn1cnc2c(=S)nc[nH]c21
T/C (dose: 16.0 mg/kg/injection, schedule: Q01DX010 (ip), vehicle: saline): 107 % of control | T/C (dose: 32.0 mg/kg/injection, schedule: Q01DX010 (ip), vehicle: saline): 96 % of control | T/C (dose: 64.0 mg/kg/injection, schedule: Q01DX010 (ip), vehicle: saline): 100 % of control

C=CC(CN1CC1)OC(C)=O (stereo unspecified)
T/C [5]: 116 % of control | T/C [6]: 123 % of control

CC1CN1P(=S)(N1CC1C)N1CC1C (stereo unspecified)
T/C (dose: 1.25 mg/kg/injection, schedule: Q01DX010 (ip), vehicle: saline): 93 % of control | T/C [7]: 96 % of control and 100 % of control | T/C [8]: 100 % of control | T/C (dose: 10.0 mg/kg/injection, schedule: Q01DX010 (ip), vehicle: saline): 93 % of control and 107 % of control

O=C(Nc1ccc(NC2=NCCN2)cc1)c1ccc(C(=O)Nc2ccc(NC3=NCCN3)cc2)cc1
T/C [5]: 121 % of control | T/C (dose: 4.0 mg/kg/injection, schedule: Q01DX010 (ip), vehicle: saline): 192 % of control | T/C [6]: 171 % of control and 211 % of control

N=[N+]=CC(=O)OCC(N)C(=O)O (stereo unspecified)
T/C [2]: 152 % of control | T/C [3]: 165 % of control

CCCNC(=NC)c1ccc(NC(=O)c2ccc(C(=O)Nc3ccc(C(=NC)NCCC)cc3)cc2)cc1
T/C (dose: 5.2 mg/kg/injection, schedule: Q01DX010 (ip), vehicle: saline): 113 % of control | T/C [6]: 113 % of control | T/C [9]: 118 % of control | T/C [10]: 100 % of control

CCN(CC)CCNc1ccc(CO)c2sc3ccccc3c(=O)c12
T/C (dose: 21.6 mg/kg/injection, schedule: Q01DX009 (ip), vehicle: water): 109 % of control | T/C (dose: 25.2 mg/kg/injection, schedule: Q01DX009 (ip), vehicle: water): 120 % of control | T/C (dose: 36.0 mg/kg/injection, schedule: Q01DX009 (ip), vehicle: water): 112 % of control | T/C (dose: 114.0 mg/kg/injection, schedule: Q01DX009 (ip), vehicle: water): 90 % of control

C[C@H]1C(=O)O[C@@H]2CCN3CC=C(COC(=O)[C@](C)(O)[C@@]1(C)O)[C@H]23
T/C (dose: 1.56 mg/kg/injection, schedule: Q01DX010 (ip), vehicle: saline): 108 % of control | T/C [2]: 112 % of control | T/C [3]: 91 % of control | T/C [4]: 100 % of control

CCOC(=O)NP(=O)(N1CC1(C)C)N1CC1(C)C (stereo unspecified)
T/C (dose: 31.3 mg/kg/injection, schedule: Q01DX010 (ip), vehicle: saline): 117 % of control | T/C [11]: 185 % of control | T/C [1]: 246 % of control

Nc1nc(N)c2nc(CNc3ccc(C(=O)NC(CCC(=O)O)C(=O)O)cc3)cnc2n1 (stereo unspecified)
T/C (dose: 25.0 micrograms/kg/injection, schedule: Q01DX010 (ip), vehicle: other): 118 % of control | T/C (dose: 50.0 micrograms/kg/injection, schedule: Q01DX010 (ip), vehicle: other): 114 % of control | T/C (dose: 200.0 micrograms/kg/injection, schedule: Q01DX010 (ip), vehicle: other): 166 % of control and 175 % of control

Nc1nc(=S)c2[nH]cnc2[nH]1
T/C (dose: 1.25 mg/kg/injection, schedule: Q01DX010 (ip), vehicle: other): 165 % of control | T/C (dose: 5.0 mg/kg/injection, schedule: Q01DX010 (ip), vehicle: other): 103 % of control and 107 % of control

O=CCC(O)C(O)C(O)CO (stereo unspecified)
T/C [11]: 88 % of control | T/C [1]: 88 % of control and 92 % of control | T/C (dose: 500.0 mg/kg/injection, schedule: Q01DX010 (ip), vehicle: saline): 92 % of control and 100 % of control

N#[N+]c1cnc([O-])[nH]c1=O
T/C [8]: 156 % of control

CC1CN=C(c2ccc(NC(=O)c3ccc(C(=O)Nc4ccc(C5=NCC(C)N5)cc4)cc3)cc2)N1 (stereo unspecified)
T/C (dose: 22.0 mg/kg/injection, schedule: Q01DX010 (ip), vehicle: saline): 113 % of control | T/C (dose: 33.0 mg/kg/injection, schedule: Q01DX010 (ip), vehicle: saline): 109 % of control

Oc1cc(CN(CCCl)CCCl)c(O)cc1CN(CCCl)CCCl
T/C (dose: 0.31 mg/kg/injection, schedule: Q01DX010 (ip), vehicle: saline): 112 % of control | T/C [7]: 117 % of control | T/C [8]: 100 % of control

C[n+]1ccc(Nc2ccc(NC(=O)c3ccc(Nc4cc[n+](C)c5ccc(N)cc45)cc3)cc2)cc1
T/C (dose: 3.24 mg/kg/injection, schedule: Q04DX003 (ip), vehicle: water): 116 % of control

O=C(Nc1ccc(C2=NCCCN2)cc1)c1ccc(C(=O)Nc2ccc(C3=NCCCN3)cc2)cc1
T/C (dose: 20.0 mg/kg/injection, schedule: Q04DX003 (ip), vehicle: Klucel (hydroxypropylcellulose) (HPC)): 158 % of control | T/C (dose: 33.3 mg/kg/injection, schedule: Q04DX003 (ip), vehicle: Klucel (hydroxypropylcellulose) (HPC)): 101 % of control

Nc1nncs1
T/C (dose: 64.8 mg/kg/injection, schedule: Q04DX003 (ip), vehicle: saline): 101 % of control | T/C (dose: 180.0 mg/kg/injection, schedule: Q04DX003 (ip), vehicle: saline): 151 % of control

CC1CN=C(c2ccc(NC(=O)c3cccc(C(=O)Nc4ccc(C5=NCC(C)N5)cc4)c3)cc2)N1 (stereo unspecified)
T/C [9]: 104 % of control | T/C [10]: 117 % of control | T/C (dose: 27.0 mg/kg/injection, schedule: Q01DX010 (ip), vehicle: saline): 104 % of control | T/C (dose: 40.0 mg/kg/injection, schedule: Q01DX010 (ip), vehicle: saline): 108 % of control

CS(=O)(=O)OCCN(CCOS(C)(=O)=O)c1ccc(N=O)cc1
T/C (dose: 0.5 mg/kg/injection, schedule: Q01DX010 (ip), vehicle: saline): 150 % of control | T/C (dose: 1.0 mg/kg/injection, schedule: Q01DX010 (ip), vehicle: saline): 150 % of control

COC(=O)[C@@]12OC[C@]34[C@H]([C@@H](O)[C@@H]1O)[C@@]1(C)CC(=O)C(O)=C(C)[C@@H]1C[C@H]3OC(=O)[C@H](OC(=O)/C=C(\C)C(C)C)[C@@H]24
T/C (dose: 389.0 micrograms/kg/injection, schedule: Q01DX004 (ip), vehicle: saline + alcohol): 103 % of control | T/C (dose: 432.0 micrograms/kg/injection, schedule: Q01DX009 (ip), vehicle: saline + alcohol): 98 % of control | T/C (dose: 648.0 micrograms/kg/injection, schedule: Q01DX004 (ip), vehicle: saline + alcohol): 109 % of control | T/C (dose: 720.0 micrograms/kg/injection, schedule: Q01DX009 (ip), vehicle: saline + alcohol): 100 % of control

CN(C)c1nc(N(C)C)nc(N(C)C)n1
T/C (dose: 18.8 mg/kg/injection, schedule: Q01DX010 (ip), vehicle: saline): 100 % of control | T/C (dose: 37.5 mg/kg/injection, schedule: Q01DX010 (ip), vehicle: saline): 100 % of control | T/C (dose: 75.0 mg/kg/injection, schedule: Q01DX010 (ip), vehicle: saline): 100 % of control | T/C (dose: 150.0 mg/kg/injection, schedule: Q01DX010 (ip), vehicle: saline): 104 % of control
